In ChEMBL document CHEMBL5385920, “Discovery of P450-Modified Sesquiterpenoids Levinoids A-D through Global Genome Mining” (J Nat Prod, 2024):
Activity calls are given as the source filed them. No cut-off for these calls is given here.

Legend:
HT-22 [1] = assay: Neuroprotective activity against glutamate-induced cytotoxicity in HT-22 cells assessed as increase in cell viability at 10 ug/ml measured after 24 hrs in presence of glutamate by CCK8 assay relative to control; assay type: functional, Mus musculus; settings: dose 10 µg/ml
HT-22 [2] = assay: Neuroprotective activity against glutamate-induced cytotoxicity in HT-22 cells assessed as increase in cell viability measured after 24 hrs in presence of glutamate by CCK8 assay; assay type: functional, cell-based; settings: Mus musculus, HT-22, 24 h
HT-22 [3] = assay: Neuroprotective activity against glutamate-induced cytotoxicity in HT-22 cells assessed as increase in cell viability at 10 ug/ml measured after 24 hrs in presence of glutamate by CCK8 assay; assay type: functional, cell-based; settings: Mus musculus, dose 10.0 µg/ml

Row | SMILES | Activity (HT-22 [1]) [%] | EC50 (HT-22 [2]) [µM] | Activity (HT-22 [3])
1 | CC1=CC[C@@H](C(C)C)[C@H]2C=C(C(=O)O)CC[C@@]12O | 82 | ~21 | 
2 | CC1=CC[C@@H](C(C)C)[C@@]2(O)C=C(C(=O)O)CC[C@@H]12 |  |  | inactive
3 | CC1=CC[C@@H](C(C)C)[C@H]2C=C(C(=O)O)CC[C@@H]12 |  |  | inactive
4 | CC1=CC[C@@H](C(C)C)[C@H]2C=C(C(=O)O)[C@@H](O)C[C@@H]12 |  |  | inactive
